Patent publication US11591331B2, “PARP1 inhibitors and uses thereof” (Xinthera, Inc., priority 2021, dated 2023)

Assays:
Assay in all cases: Cell growth inhibition assay (CellTiter-Glo cell viability, 7 days)
Type in all cases: cell-based
DLD-1 parental = settings: Homo sapiens, 168 h, DLD-1 parental cells
Source text: Example A: Cell Growth Inhibition Assay
The objective of this study is to evaluate the effect of invention compounds on cell proliferation through the cell viability assay in DLD-1 BRCA2(−/−) and parental isogenic pair and MDA-MB-436 (mutated BRCA1) cell lines. The CellTiter-Glo (CTG) based cell viability assay is designed to determine the number of viable cells in the culture because of compound effect, by quantifying ATP, which indicates the presence of metabolically active cells.
DLD-1 BRCA2(−/−) and parental isogenic pair were cultured in RPMI 1640 supplemented with 10% fetal bovine serum (FBS), and MDA-MB-436 cells were cultured in DMEM supplemented with 10% FBS. Both are culture at 37° C. with 5% CO2. Invention compounds were distributed to the 384 well plate (Corning, 3764) using Echo acoustic liquid handler to form a 1:3 serially diluted final concentration with top dose of 10 or 30 μM. The cells were seeded into the plate in the density of 50 cells/well (DLD-1 parental), 200 cells/well (DLD-1 BRCA2−/−), or 500 cells/well (MDA-MB-436). After a short spun, the cells were cultured in a well moisturized incubator at 37° C. with 5% CO2 for 7 days without disturbance. The cell viability was measured by CellTiter Glo 2.0 assay kit (Promega, G9243), and growth inhibition rate was calculated and plotted against final compound concentration, and the data were fitted in Xfit to generate IC50.

[1] = system: MDA-MB-436 (mutated BRCA1) cell lines; settings: Homo sapiens, 168 h, MDA-MB-436 cells
DLD-1 BRCA2(−/−) = settings: Homo sapiens, 168 h, DLD-1 BRCA2(-/-) cells

CNC(=O)c1ccc(N2CCN(Cc3ccc4cc(OC(F)F)c(=O)[nH]c4c3)CC2)cn1 [Example 31]
EC50 (DLD-1 parental): 56 µM
EC50 [1]: 0.015 µM
EC50 (DLD-1 BRCA2(−/−)): 0.048 µM

CCc1cc2ncc(CN3CCN(c4cnc(C(=O)NC)s4)CC3)cc2[nH]c1=O [Example 30]
EC50 (DLD-1 parental): 40 µM
EC50 [1]: 0.058 µM
EC50 (DLD-1 BRCA2(−/−)): 0.22 µM

CNC(=O)c1ccc(N2CCN(Cc3cnc4cc(C)c(=O)[nH]c4c3)CC2)cn1 [Example 33]
EC50 (DLD-1 parental): > 30 µM
EC50 [1]: 0.0031 µM
EC50 (DLD-1 BRCA2(−/−)): 0.0065 µM

CCc1cc2ncc(CN3CCN(c4ccc(C(=O)NC)c(F)c4)CC3)cc2[nH]c1=O [Example 7, 4-{4-[(7-ethyl-6-oxo-5H-1,5-naphthyridin-3-yl)methyl]piperazin-1-yl}-2-fluoro-N-methylbenzamide]
EC50 (DLD-1 parental): 300 µM
EC50 [1]: 0.0013 µM
EC50 (DLD-1 BRCA2(−/−)): 0.0031 µM

CNC(=O)c1ccc(N2CCN(Cc3cnc4c(c3)[nH]c(=O)c3ccoc34)CC2)cn1 [Example 72]
EC50 (DLD-1 parental): > 30 µM
EC50 [1]: 0.0025 µM
EC50 (DLD-1 BRCA2(−/−)): 0.0042 µM

CCc1cc2ncc(CN3CCN(c4ccc(C(=O)NC)nc4)[C@@H]4C[C@@H]43)cc2[nH]c1=O (stereo in doubt) [Example 3A, rel-5-[(1R,6S)-5-[(7-ethyl-6-oxo-5H-1,5-naphthyridin-3-yl)methyl]-2,5-diazabicyclo[4.1.0]heptan-2-yl]-N-methylpyridine-2-carboxamide]
EC50 (DLD-1 parental): > 30 µM
EC50 [1]: 0.024 µM
EC50 (DLD-1 BRCA2(−/−)): 0.23 µM

CNC(=O)c1ccc(N2CCN(Cc3ccc4c5c(c(=O)[nH]c4c3)CCC5)CC2)cn1 [Example 10, N-methyl-5-[4-({4-oxo-1H,2H,3H,5H-cyclopenta[c]quinolin-7-yl}methyl)piperazin-1-yl]pyridine-2-carboxamide]
EC50 (DLD-1 parental): 1400 µM
EC50 [1]: 0.00068 µM
EC50 (DLD-1 BRCA2(−/−)): 0.0026 µM

CCc1cc2ncc(CN3CCN(c4ccc(C(=O)NC)nc4C#N)[C@H](C)C3)cc2[nH]c1=O [Example 4, 6-cyano-5-[(2R)-4-[(7-ethyl-6-oxo-5H-1,5-naphthyridin-3-yl)methyl]-2-methylpiperazin-1-yl]-N-methylpyridine-2-carboxamide]
EC50 (DLD-1 parental): > 30 µM
EC50 [1]: 0.00069 µM
EC50 (DLD-1 BRCA2(−/−)): 0.0016 µM

CCc1cc2ncc(CN3CCN(c4ccc(C(=O)NC5CC5)nc4)CC3)cc2[nH]c1=O [Example 12, N-cyclopropyl-5-{4-[(7-ethyl-6-oxo-5H-1,5-naphthyridin-3-yl)methyl]piperazin-1-yl}pyridine-2-carboxamide]
EC50 (DLD-1 parental): 51 µM
EC50 [1]: 0.00062 µM
EC50 (DLD-1 BRCA2(−/−)): 0.0011 µM

CCc1cc2ccc(CN3CCN(c4ccc(C#N)cn4)CC3)cc2[nH]c1=O [Example 9, 6-{4-[(3-ethyl-2-oxo-1H-quinolin-7-yl)methyl]piperazin-1-yl}pyridine-3-carbonitrile]
EC50 (DLD-1 parental): 13 µM
EC50 [1]: 0.0015 µM
EC50 (DLD-1 BRCA2(−/−)): 0.0035 µM

CCc1cc2ncc(CN3C[C@@H]4C(c5ccc(C(=O)NC)nc5)[C@@H]4C3)cc2[nH]c1=O (stereo partly drawn) [Example 146]
EC50 (DLD-1 parental): > 30 µM
EC50 [1]: 0.0092 µM
EC50 (DLD-1 BRCA2(−/−)): 0.32 µM

CCc1cc2ncc(CN3CCN(c4ccc(C(=O)NC)nc4C4CC4)CC3)cc2[nH]c1=O [Example 6, 6-cyclopropyl-5-(4-((7-ethyl-6-oxo-5,6-dihydro-1,5-naphthyridin-3-yl)methyl)piperazin-1-yl)-N-methylpicolinamide]
EC50 (DLD-1 parental): 11 µM
EC50 [1]: 0.0017 µM
EC50 (DLD-1 BRCA2(−/−)): 0.0028 µM

CCc1cc2ncc(CN3CCN(c4ccc(C(=O)NC)nc4)[C@H]4C[C@H]43)cc2[nH]c1=O (single isomer, unassigned) [Example 3B]
EC50 (DLD-1 parental): 29 µM
EC50 [1]: 0.0015 µM
EC50 (DLD-1 BRCA2(−/−)): 0.0032 µM

CCc1cc2ncc(CN3CCN(c4ccc(C(=O)NC)nc4)C[C@H]3C)cc2[nH]c1=O (racemic) [Example 161]
EC50 (DLD-1 parental): > 10 µM
EC50 (DLD-1 BRCA2(−/−)): 0.022 µM

CCc1cc2ncc(CN3CC=C(c4ccc(C(=O)NC)nc4)CC3)cc2[nH]c1=O [Example 8, 1′-((7-ethyl-6-oxo-5,6-dihydro-1,5-naphthyridin-3-yl)methyl)-N-methyl-1′,2′,3′,6′-tetrahydro-[3,4′-bipyridine]-6-carboxamide]
EC50 (DLD-1 parental): 89 µM
EC50 [1]: 0.00025 µM
EC50 (DLD-1 BRCA2(−/−)): 0.001 µM

N#Cc1ncccc1N1CCN(Cc2cnc3cc(C4CC4)c(=O)[nH]c3c2)CC1 [Example 129]
EC50 [1]: 0.007 µM
EC50 (DLD-1 BRCA2(−/−)): 0.015 µM

CNC(=O)c1ncc(N2CCN(Cc3cnc4cc(C5CC5)c(=O)[nH]c4c3)[C@H]3C[C@H]32)cc1F (single isomer, unassigned) [Example 113]
EC50 [1]: 0.02 µM
EC50 (DLD-1 BRCA2(−/−)): 0.045 µM

O=C(NC1CC1)c1ccc(N2CCN(Cc3cnc4cc(C5CC5)c(=O)[nH]c4c3)CC2)c(F)n1 [Example 158]
EC50 [1]: 0.001 µM
EC50 (DLD-1 BRCA2(−/−)): 0.0021 µM

CNC(=O)c1ccc(N2CCN(Cc3cnc4cc(C5CC5)c(=O)[nH]c4c3)[C@H]3C[C@H]32)cn1 (single isomer, unassigned) [Example 110]
EC50 [1]: 0.0033 µM
EC50 (DLD-1 BRCA2(−/−)): 0.0057 µM

CNC(=O)c1ccc(N2CCN(Cc3cnc4c(Cl)c(Br)c(=O)[nH]c4c3)CC2)cn1 [Example 159]
EC50 [1]: 0.00072 µM
EC50 (DLD-1 BRCA2(−/−)): 0.0017 µM

CNC(=O)c1ccc(N2CCN(Cc3cnc4c5c(c(=O)[nH]c4c3)CCC5)CC2)cn1 [Example 84]
EC50 [1]: 0.002 µM
EC50 (DLD-1 BRCA2(−/−)): 0.0022 µM

CCc1cc2ncc(CN3CCN(c4ccncc4C#N)CC3)cc2[nH]c1=O [Example 118]
EC50 [1]: 0.00074 µM
EC50 (DLD-1 BRCA2(−/−)): 0.0013 µM

CCc1cc2ncc(CN3CCN(c4ccc(C(=O)NCCC#N)nc4)CC3)cc2[nH]c1=O [Example 50]
EC50 [1]: 0.0021 µM
EC50 (DLD-1 BRCA2(−/−)): 0.0045 µM

CCc1cc2ncc(CN3CCN(c4ccccc4C#N)CC3)cc2[nH]c1=O [Example 130]
EC50 [1]: 0.0023 µM
EC50 (DLD-1 BRCA2(−/−)): 0.0033 µM

CNC(=O)c1ccc(C2=CCN(Cc3cnc4cc(Cl)c(=O)[nH]c4c3)CC2)cn1 [Example 160]
EC50 [1]: 0.0021 µM
EC50 (DLD-1 BRCA2(−/−)): 0.0026 µM

O=C(NC1CC1)c1ccc(N2CCN(Cc3cnc4cc(Cl)c(=O)[nH]c4c3)CC2)c(F)n1 [Example 152]
EC50 [1]: 0.00051 µM
EC50 (DLD-1 BRCA2(−/−)): 0.0011 µM

CCc1cc2ncc(CN3CCN(c4ccc(NC(=O)OC5COC5)nc4)CC3)cc2[nH]c1=O [Example 102]
EC50 [1]: 0.018 µM
EC50 (DLD-1 BRCA2(−/−)): 0.013 µM

CCc1cc2ncc(CN3CCN(c4ccc(C(=O)NC5COC5)nc4)CC3)cc2[nH]c1=O [Example 46]
EC50 [1]: 0.0012 µM
EC50 (DLD-1 BRCA2(−/−)): 0.0037 µM

Cc1cc2ncc([C@H](C)N3CCN(c4ccc(C(=O)NC5CC5)nc4)CC3)cc2[nH]c1=O (single isomer, unassigned) [Example 126]
EC50 [1]: 0.0043 µM
EC50 (DLD-1 BRCA2(−/−)): 0.014 µM

Cc1cc2ncc(CN3CCN(c4ccc(C(=O)NC5CC5)nc4)CC3)cc2[nH]c1=O [Example 63]
EC50 [1]: 0.0032 µM
EC50 (DLD-1 BRCA2(−/−)): 0.0093 µM

C#Cc1ccc(N2CCN(Cc3cnc4cc(CC)c(=O)[nH]c4c3)CC2)nc1 [Example 83]
EC50 [1]: 0.0014 µM
EC50 (DLD-1 BRCA2(−/−)): 0.0015 µM

Cc1cc2ncc(CN3CCN(c4ccc(C(=O)NC5COC5)c(F)c4)CC3)cc2[nH]c1=O [Example 80]
EC50 [1]: 0.0098 µM
EC50 (DLD-1 BRCA2(−/−)): 0.037 µM

CCc1cc2ncc(CN3CCN(c4ccc(-n5cccn5)nc4)CC3)cc2[nH]c1=O [Example 92]
EC50 [1]: 0.01 µM
EC50 (DLD-1 BRCA2(−/−)): 0.011 µM

CCc1cc2ncc(CN3CCN(c4ccc(C(=O)NC)c(=O)n4C)CC3)cc2[nH]c1=O [Example 65]
EC50 [1]: 0.0031 µM
EC50 (DLD-1 BRCA2(−/−)): 0.013 µM

CNC(=O)c1ccc(N2CCN(Cc3cnc4c(C)c(Cl)c(=O)[nH]c4c3)CC2)cn1 [Example 148, 5-{4-[(7-chloro-8-methyl-6-oxo-5H-1,5-naphthyridin-3-yl)methyl]piperazin-1-yl}-N-methylpyridine-2-carboxamide]
EC50 [1]: 0.0015 µM
EC50 (DLD-1 BRCA2(−/−)): 0.002 µM

[2H]C([2H])([2H])C([2H])([2H])NC(=O)c1ccc(N2CCN(Cc3cnc4cc(C5CC5)c(=O)[nH]c4c3)CC2)n(C)c1=O [Example 123]
EC50 [1]: 0.0056 µM
EC50 (DLD-1 BRCA2(−/−)): 0.015 µM

CCc1cc2ncc(CN3CCN(c4ccc(C(=O)NC5CC5)c(F)c4)CC3)cc2[nH]c1=O [Example 134]
EC50 [1]: 0.0014 µM
EC50 (DLD-1 BRCA2(−/−)): 0.0024 µM

CNC(=O)c1ccc(N2CCN(Cc3cnc4cc(C5CC5)c(=O)[nH]c4c3)CC2)c(C#N)n1 [Example 97]
EC50 [1]: 0.00071 µM
EC50 (DLD-1 BRCA2(−/−)): 0.0015 µM

CCc1cc2ncc(CN3CCN(c4ccc(C(=O)NC5COC5)nc4)[C@H](C)C3)cc2[nH]c1=O [Example 79]
EC50 [1]: 0.0037 µM
EC50 (DLD-1 BRCA2(−/−)): 0.0096 µM

CNC(=O)c1ccc(N2CCN(Cc3cnc4cc(C)c(=O)[nH]c4c3)C[C@H]2C)c(C#N)n1 [Example 66]
EC50 [1]: 0.0017 µM
EC50 (DLD-1 BRCA2(−/−)): 0.0041 µM

O=C(NC1CC1)c1ccc(N2CCN(Cc3cnc4c(c3)[nH]c(=O)c3ccoc34)CC2)cn1 [Example 142]
EC50 [1]: 0.004 µM
EC50 (DLD-1 BRCA2(−/−)): 0.0087 µM

[2H]C([2H])([2H])NC(=O)c1ccc(N2CCN(Cc3ccc4c5c(c(=O)[nH]c4c3)CCO5)CC2)cn1 [Example 73]
EC50 [1]: 0.0022 µM
EC50 (DLD-1 BRCA2(−/−)): 0.0042 µM

CCc1cc2ncc(CN3CCN(c4ccc(-c5ncc[nH]5)nc4)CC3)cc2[nH]c1=O [Example 19, 3-ethyl-7-({4-[6-(1H-imidazol-2-yl)pyridin-3-yl]piperazin-1-yl}methyl)-1H-1,5-naphthyridin-2-one]
EC50 [1]: 0.0018 µM
EC50 (DLD-1 BRCA2(−/−)): 0.0037 µM

CNC(=O)c1ccc2c(n1)OC[C@@H]1CN(Cc3cnc4cc(C5CC5)c(=O)[nH]c4c3)CCN21 [Example 78]
EC50 [1]: 0.0018 µM
EC50 (DLD-1 BRCA2(−/−)): 0.0028 µM
